Here are results for 41 compounds from patent US10106501B2, “Nuclear receptor modulators” (AbbVie Inc., priority 2015, dated 2018).

A value given as a limit tells only on which side of the number the result lay.

For this experiment, the target named is T1, chimeric human RORγ-Gal4 receptor (Homo sapiens, UniProt P51449).
T1 sequence (P51449 269-508 limits assumed): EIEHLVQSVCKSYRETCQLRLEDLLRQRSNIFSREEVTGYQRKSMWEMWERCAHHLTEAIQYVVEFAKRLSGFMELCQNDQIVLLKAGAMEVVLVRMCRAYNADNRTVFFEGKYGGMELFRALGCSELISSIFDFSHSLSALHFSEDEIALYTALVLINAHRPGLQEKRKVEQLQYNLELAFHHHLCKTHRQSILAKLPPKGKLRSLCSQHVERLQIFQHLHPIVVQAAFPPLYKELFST
The experiment can be described thus: transient transactivation assay (RORγ-Gal4 luciferase reporter). Type of experiment: cell-based. The settings on record: Cos-7 cells transfected with RORγ-Gal4 and 5Gal4 pGL3 TK Luc reporter; overnight incubation; T0901317 at 10^-5 M as reference; read-out: IC50. For orientation: Reporter assays use an easily measured gene product as a stand-in for the process of interest.
As usually defined, the IC50 is the concentration that inhibits the measured activity by half. For `Cc1cc(C(F)(F)F)cn2c(C)c(Cc3c(Cl)ccc(C(=O)N4CCC(CCO)CC4)c3Cl)nc12` [CT-2], the IC50 was 100 to 500 nM.
With `Cc1cc(C(F)(F)F)cn2c(C)c(Cc3c(Cl)ccc(C(=O)N4CCC(C(C)(C)O)CC4)c3Cl)nc12` [CT-3] the figure was < 100 nM; with `Cc1cc(C(F)(F)F)cn2c(C)c(Cc3c(Cl)ccc(C(=O)N4CCC(O)C4)c3Cl)nc12` (centres unmarked) [CT-4], > 10000 nM; with `Cc1cc(C(F)(F)F)cn2c(C)c(Cc3c(Cl)ccc(C(=O)N4CCC(N(C)C)CC4)c3Cl)nc12` [CT-5], 500 to 1000 nM.
Take `COC1CCN(C(=O)c2ccc(Cl)c(Cc3nc4c(C)cc(C(F)(F)F)cn4c3C)c2Cl)CC1` [CT-6]: the IC50 is < 100 nM.
Next, `COCCC1CCN(C(=O)c2ccc(Cl)c(Cc3nc4c(C)cc(C(F)(F)F)cn4c3C)c2Cl)CC1` [CT-7]: < 100 nM; `Cc1cc(C(F)(F)F)cn2c(C)c(Cc3c(Cl)ccc(C(=O)N4CCC(C5COC5)CC4)c3Cl)nc12` [CT-8]: < 100 nM.
As for `Cc1cc(C(F)(F)F)cn2c(C)c(Cc3c(Cl)ccc(C(=O)N4CCN(C5COC5)CC4)c3Cl)nc12` [CT-9], the IC50 is 100 to 500 nM.
With `Cc1cc(C(F)(F)F)cn2c(C)c(Cc3c(Cl)ccc(C(=O)N4CCC(C(C)O)CC4)c3Cl)nc12` (centres unmarked) [CT-11] the figure was 100 to 500 nM.
With `Cc1cc(C#N)cn2c(C)c(Cc3c(Cl)ccc(C(=O)N4CCC(C5COC5)CC4)c3Cl)nc12` [CV-5] the figure was 100 to 500 nM.
With `Cc1cc(C(F)(F)F)nn2c(C)c(Cc3c(Cl)ccc(C(=O)N4CCOCC4)c3Cl)nc12` [CZ, (2,4-dichloro-3-((3,8-dimethyl-6-(trifluoromethyl)imidazo[1,2-b]pyridazin-2-yl)methyl)phenyl)(morpholino)methanone] the figure was < 100 nM; with `Cc1cc(C(F)(F)F)nn2c(C)c(C(=O)c3c(Cl)ccc(C(=O)N4CCC(CC(=O)O)CC4)c3Cl)nc12` [CZ-1A, 2-(1-(2,4-dichloro-3-(3,8-dimethyl-6-(trifluoromethyl)imidazo[1,2-b]pyridazine-2-carbonyl)benzoyl)piperidin-4-yl)acetic acid], 100 to 500 nM; with `Cc1cc(C(F)(F)F)nn2c(C)c(Cc3c(Cl)ccc(C(=O)N4CCN(C5COC5)CC4)c3Cl)nc12` [CZ-1], 100 to 500 nM.
For the compound `Cc1cc(C(F)(F)F)nn2c(C)c(Cc3c(Cl)ccc(C(=O)N4CCC(C5COC5)CC4)c3Cl)nc12` [CZ-2], the IC50 was < 100 nM.
Next, `Cc1cc(C(F)(F)F)nn2c(C)c(Cc3c(Cl)ccc(C(=O)N4CCN(S(C)(=O)=O)[C@H](C)C4)c3Cl)nc12` [CZ-3]: 100 to 500 nM; `Cc1cc(C(F)(F)F)cc2c1cc(Cc1c(Cl)ccc(C(=O)N3CCOCC3)c1Cl)n2C` [D, (2,4-dichloro-3-((1,4-dimethyl-6-(trifluoromethyl)-1H-indol-2-yl)methyl)phenyl)(morpholino)methanone]: < 100 nM; `Cc1cc(C#N)nn2c(C)c(Cc3c(Cl)ccc(C(=O)N4CCOCC4)c3Cl)nc12` [DA, 2-(2,6-dichloro-3-(morpholine-4-carbonyl)benzyl)-3,8-dimethylimidazo[1,2-b]pyridazine-6-carbonitrile]: 1000 to 10000 nM.
Next, `Cc1cc2nc(Cc3c(Cl)ccc(C(=O)N4CCOCC4)c3Cl)c(C)n2nc1C#N` [DB, 2-(2,6-dichloro-3-(morpholine-4-carbonyl)benzyl)-3,7-dimethylimidazo[1,2-b]pyridazine-6-carbonitrile]: 1000 to 10000 nM; `Cc1cc(C(F)(F)F)nc2c1nc(Cc1c(Cl)ccc(C(=O)N3CCOCC3)c1Cl)n2C` [DC, (2,4-dichloro-3-((3,7-dimethyl-5-(trifluoromethyl)-3H-imidazo[4,5-b]pyridin-2-yl)methyl)phenyl)(morpholino)methanone]: 1000 to 10000 nM; `Cc1nn(Cc2c(Cl)ccc(C(=O)N3CCC(C4COC4)CC3)c2Cl)c2c(C)cc(C(F)(F)F)cc12` [DD-1, (2,4-dichloro-3-((3,7-dimethyl-5-(trifluoromethyl)-1H-indazol-1-yl)methyl)phenyl)(4-(oxetan-3-yl)piperidin-1-yl)methanone]: < 100 nM.
Next, `Cc1nn(Cc2c(Cl)ccc(C(=O)N3CCC(CC(=O)O)CC3)c2Cl)c2c(C)cc(C(F)(F)F)cc12` [DE, 2-(1-(2,4-dichloro-3-((3,7-dimethyl-5-(trifluoromethyl)-1H-indazol-1-yl)methyl)benzoyl)piperidin-4-yl)acetic acid]: < 100 nM; `Cc1cc(C(F)(F)F)cc2c(C)n(Cc3c(Cl)ccc(C(=O)N4CCC(CC(=O)O)CC4)c3Cl)nc12` [DG, 2-(1-(2,4-dichloro-3-((3,7-dimethyl-5-(trifluoromethyl)-2H-indazol-2-yl)methyl)benzoyl)piperidin-4-yl)acetic acid]: < 100 nM.
Take `Cc1cn(Cc2c(Cl)ccc(C(=O)N3CC[C@H](C(=O)O)[C@H](C)C3)c2Cl)c2c(C)cc(C(F)(F)F)cc12` [DH1-1]: the half-maximal inhibitory concentration (IC50) was < 100 nM.
Next, `Cc1cn(Cc2c(Cl)ccc(C(=O)N3CC[C@@H](C(=O)O)[C@@H](C)C3)c2Cl)c2c(C)cc(C(F)(F)F)cc12` [DH1-2]: < 100 nM; `Cc1cn(Cc2c(Cl)ccc(C(=O)N3CCC(C(=O)O)CC3)c2Cl)c2c(C)cc(C(F)(F)F)cc12` [DH, 1-(2,4-dichloro-3-((3,7-dimethyl-5-(trifluoromethyl)-1H-indol-1-yl)methyl)benzoyl)piperidine-4-carboxylic acid]: < 100 nM.
As for `Cc1cn(Cc2c(Cl)ccc(C(=O)N3CCC(CC(=O)O)CC3)c2Cl)c2c(C)cc(C(F)(F)F)cc12` [DI, 2-(1-(2,4-dichloro-3-((3,7-dimethyl-5-(trifluoromethyl)-1H-indol-1-yl)methyl)benzoyl)piperidin-4-yl)acetic acid], the IC50 is < 100 nM.
With `Cc1cn(C(=O)c2c(Cl)ccc(C(=O)N3CCC(C(=O)O)CC3)c2Cl)c2c(C)cc(C(F)(F)F)cc12` [DJ1-1] the figure was < 100 nM; with `Cc1cn(C(=O)c2c(Cl)ccc(C(=O)N3CC[C@H](C(=O)O)[C@H](C)C3)c2Cl)c2c(C)cc(C(F)(F)F)cc12` [DJ1-2], < 100 nM.
For the compound `Cc1cn(C(=O)c2c(Cl)ccc(C(=O)N3CC[C@@H](C(=O)O)[C@@H](C)C3)c2Cl)c2c(C)cc(C(F)(F)F)cc12` [DJ1-3], the IC50 is < 100 nM.
Regarding `Cc1cn(C(=O)c2c(Cl)ccc(C(=O)N3CCC(CC(=O)O)CC3)c2Cl)c2c(C)cc(C(F)(F)F)cc12` [DJ, 2-(1-(2,4-dichloro-3-(3,7-dimethyl-5-(trifluoromethyl)-1H-indole-1-carbonyl)benzoyl)piperidin-4-yl)acetic acid], the IC50 is < 100 nM.
With `Cc1cn(Cc2c(Cl)ccc(C(=O)N3CCC(O)CC3)c2Cl)c2c(C)cc(C#N)cc12` [DK, 1-(2,6-dichloro-3-(4-hydroxypiperidine-1-carbonyl)benzyl)-3,7-dimethyl-1H-indole-5-carbonitrile] the figure was 100 to 500 nM.
With `Cc1cn(Cc2c(Cl)ccc(C(=O)N3CCC(CC(=O)O)CC3)c2Cl)c2c(C)cc(C#N)cc12` [DL, 2-(1-(2,4-dichloro-3-((5-cyano-3,7-dimethyl-1H-indol-1-yl)methyl)benzoyl)piperidin-4-yl)acetic acid] the figure was < 100 nM; with `Cc1cn(C(=O)c2c(Cl)ccc(C(=O)N3CCC(O)CC3)c2Cl)c2c(C)cc(C#N)cc12` [DM, 1-(2,6-dichloro-3-(4-hydroxypiperidine-1-carbonyl)benzoyl)-3,7-dimethyl-1H-indole-5-carbonitrile], 100 to 500 nM.
As for `Cc1cn(C(=O)c2c(Cl)ccc(C(=O)N3CCC(CC(=O)O)CC3)c2Cl)c2c(C)cc(C#N)cc12` [DN, 2-(1-(2,4-dichloro-3-(5-cyano-3,7-dimethyl-1H-indole-1-carbonyl)benzoyl)piperidin-4-yl)acetic acid], the IC50 was < 100 nM.
With `Cc1cc(C(F)(F)F)nc2c1cc(Cc1c(Cl)ncc(C(=O)N3CCC(O)CC3)c1Cl)n2C` [DO, (4,6-dichloro-5-((1,4-dimethyl-6-(trifluoromethyl)-1H-pyrrolo[2,3-b]pyridin-2-yl)methyl)pyridin-3-yl)(4-hydroxypiperidin-1-yl)methanone] the figure was < 100 nM; with `Cc1cc(OC(F)(F)F)cc2c1cc(Cc1c(Cl)ccc(C(=O)N3CCC(CC(=O)O)CC3)c1Cl)n2C` [DP, 2-(1-(2,4-dichloro-3-((1,4-dimethyl-6-(trifluoromethoxy)-1H-indol-2-yl)methyl)benzoyl)piperidin-4-yl)acetic acid], < 100 nM.
With `Cc1cc(OC(F)(F)F)cc2c1cc(Cc1c(Cl)ccc(C(=O)N3CCOCC3)c1Cl)n2C` [DP-1, (2,4-dichloro-3-((1,4-dimethyl-6-(trifluoromethoxy)-1H-indol-2-yl)methyl)phenyl)(morpholino)methanone] the figure was < 100 nM; with `Cc1cc(OC(F)(F)F)cc2c1cc(Cc1c(Cl)ccc(C(=O)N3CC[C@H](C(=O)O)[C@H](C)C3)c1Cl)n2C` [DP-2, (3S,4S)-1-(2,4-dichloro-3-((1,4-dimethyl-6-(trifluoromethoxy)-1H-indol-2-yl)methyl)benzoyl)-3-methylpiperidine-4-carboxylic acid], < 100 nM; with `Cc1cc(OC(F)(F)F)cc2c1cc(Cc1c(Cl)ccc(C(=O)N3CC[C@@H](C(=O)O)[C@@H](C)C3)c1Cl)n2C` [DP-3, (3R,4R)-1-(2,4-dichloro-3-((1,4-dimethyl-6-(trifluoromethoxy)-1H-indol-2-yl)methyl)benzoyl)-3-methylpiperidine-4-carboxylic acid], < 100 nM.
Next, `Cn1c(Cc2c(Cl)ccc(C(=O)N3CCOCC3)c2Cl)cc2c(Cl)cc(C#N)cc21` [DQ, 4-chloro-2-(2,6-dichloro-3-(morpholine-4-carbonyl)benzyl)-1-methyl-1H-indole-6-carbonitrile]: < 100 nM.
As for `Cc1cc(OC(F)(F)F)cc2c1c(Cc1c(Cl)ccc(C(=O)N3CCC(CC(=O)O)CC3)c1Cl)cn2C` [DU1-1], the IC50 is < 100 nM.
